Source: patent US20210275545A1, “METHOD OF TREATING CANCER PREFERABLY CHARACTERIZED BY EXPRESSION OF A FUSION PROTEIN COMPRISING A MEMBER OF THE E-TWENTY-SIX FAMILY BY ADMINISTERING AN AGENT THAT INHIBITS THE SYNTHESIS AND/OR ACTIVITY OF CORTISOL” (Yeda Research and Development Co. Ltd., priority 2018, published 2021)

Columns and labels:
GR and FLI1 = GR and FLI1 (Homo sapiens, UniProt P04150); details: combination of DEX (1 μM) and RU486 (1 μM)
Protocol: (§1) (A) The scheme presents the full length Gaussia luciferase protein, along with either the amino-terminal segment (Gluc1), which was fused to an ETS family transcription factor, or the carboxyl terminal segment (Gluc2), which was fused to GR. Amino acid numbers are indicated. cDNAs encoding most members of the ETS family (16 members altogether) were cloned downstream to Gluc1. […] (B) HEK-293T cells (6×10^3) were seeded in 96-well plates. On the next day, cells were transfected with combinations of the Gluc1 plasmid, encoding a fused ETS family member, and the Gluc2 plasmid encoding a fused full-length GR. […] Cells were then lysed and luminescence was determined in biological triplicates. […] (D and E) HEK-293T cells were seeded in 100-mm dishes. Once they reached sub-maximal density (70%), cells were starved overnight for serum factors. […] Cell extracts were then processed for co-immunoprecipitation assays, in which the endogenous FLI1 or ERG protein was immunoprecipitated using a specific antibody, and immunoblotting was performed using an antibody against GR. EB, empty beads; C, solvent control. Images shown are representative of three biological replicates.
(A) HEK-293T cells (6×10^3) were seeded in 96-well plates. On the next day, the cells were transfected with combinations of the Gluc1 plasmid, encoding fused FLI1 or ERG, and the Gluc2 plasmid encoding GR. […] Cells were then lysed and luminescence was determined in each sample. Luminescence of vehicle-treated cells was used for normalization. […] (B) HEK-293T cells were seeded on coverslips in 6-well plates. […] Images were processed using the Zeiss ZEN2011 software. […] Bars, 20 μm.
(§2) Protein-fragment complementation assays (PCA): PCA was performed as previously described.

GR and ETV4 = GR and ETV4 (Homo sapiens, UniProt P04150); details: combination of DEX (1 μM) and RU486 (1 μM)
Protocol: as §1, §2

GR and PU.1 = GR and PU.1 (Homo sapiens, UniProt P04150); details: combination of DEX (1 μM) and RU486 (1 μM)
Protocol: as §1, §2

CHLA9 and RD-ES cells = assay: Matrigel invasion assay of ES cells; assay type: cell-based; details: DEX 1 μM, RU486 1 μM, D06 10 μM; 20 hours
Protocol: (A) CHLA9 cells were seeded in 100-mm dishes. Once they reached sub-maximal density, cells were starved overnight for serum factors. […] Cells were then extracted and the lysates were processed for co-immunoprecipitation assays using an antibody against GR followed by immunobloting that used an antibody against EWS. The image shown is representative of 3 biological replicates. Signals were quantified and normalized (see numbers below each lane). EB, empty beads. […] (C-D) CHLA9 cells were seeded on the upper faces of either Transwell migration chambers or Matrigel-coated invasion chambers, and further incubated for 20 hours in full medium. Control siRNAs or siRNAs specific to either GR or EWS-FLI1 were added to cells 24 hours prior to seeding, and both cell migration and invasion were measured 20 hours later. […] Cells that reached the lower faces of the chambers were fixed and stained. Shown are representative images of stained cells. The bar plots show quantification, using ImageJ, of the area covered by cells. *, p≤0.05, **, p≤0.005. Bars, 500 μm. […] The bar plots show quantification, using ImageJ, of the area covered by cells. *, p≤0.05, **, p≤0.005. […]
(A) RD-ES cells were seeded in 100-mm dishes. […] Cell migration/invasion was determined 20 hours later.

A673 cells = assay: MTT cell viability assay, A673 cells; assay type: cell-based; details: FLI1 silenced A673 cells; RU486 10 μM, 48 hours
RD-ES tumors = assay: Immunoblotting of RD-ES tumor extracts; assay type: in vivo, SCID mice
Protocol: FIGS. 13A-B: A GR antagonist and a cortisol-lowering drug induce markers of cell death in animal models of Ewing's sarcoma. (A) RD-ES tumors presented in FIG. 6A were extracted and analyzed using immunoblotting and the indicated antibodies. Note that tumors from three different mice per group were analyzed. (B) Whole extracts prepared from the tumors presented in FIG. 6D were analyzed using immunoblotting and the indicated antibodies. Note that tumors from three different mice per group were analyzed.
ES animal model studies: All animal experiments were approved by the Weizmann Institute's Animal Care and Use Committee. RD-ES cells and A673 cells (2.5×10^6) were inoculated subcutaneously in the right legs of female SCID mice (6 weeks old). Tumor growth was monitored once every 3 days using a caliper. […] Mice were euthanized when tumor size reached 800-900 mm^3. For metastasis assays, luciferase-labeled TC-71 cells (10^6) were injected orthotopically into the tibia of female SCID mice. Once the primary tumor reached the allowed size limit, we excised the lungs and examined metastases using luciferase bioluminescence imaging.

TC-71 cells = assay: Bone-to-lung metastasis of luciferase-labeled TC-71 cells injected into the tibia; assay type: in vivo, SCID mice; details: TC-71 in tibia; 1 mg/kg intraperitoneally
Text: FIGS. 6A-E. A GR antagonist and a cortisol-lowering drug impede growth of human xenograft models of Ewing's sarcoma. (A) RD-ES cells (2×10^6) were implanted subcutaneously in the right flank of SCID mice. […] The means of tumor volumes (+SEM) are shown. […] (B) Shown are representative images of immunofluorescent staining for KI67 in paraffin-embedded sections of tumors from A, using an antibody against KI67. Scale bars, 100 μm. Also shown is the scatter plot depicting quantification of KI67 staining in randomly selected 4 fields of a representative tumor from each group. […] (C and D) A673 cells (2×10^6) were implanted in female SCID mice. […] Each group was daily treated with either vehicle, or Metyrapone (25 mg/kg) and tumorigenic growth was monitored. Actual tumor volumes (±SEM) are presented. Also shown are tumors harvested from each group of animals; **p<0.001. (E) TC-71 cells (10^6) engineered to stably express luciferase were injected into the tibia of female SCID mice (5 weeks old; 7 mice per group). […] The control group was similarly treated with the solvent (0.1% tween 80). When the primary tumor reached 10% of body weight, the lungs were excised and examined for metastasis using luciferase bioluminescence imaging. […] Luminescence was quantified and presented in a bar graph. […] Tumor growth was monitored once every 3 days using a caliper. […]

Chain of GR and ETV4 (P04150 whole entry): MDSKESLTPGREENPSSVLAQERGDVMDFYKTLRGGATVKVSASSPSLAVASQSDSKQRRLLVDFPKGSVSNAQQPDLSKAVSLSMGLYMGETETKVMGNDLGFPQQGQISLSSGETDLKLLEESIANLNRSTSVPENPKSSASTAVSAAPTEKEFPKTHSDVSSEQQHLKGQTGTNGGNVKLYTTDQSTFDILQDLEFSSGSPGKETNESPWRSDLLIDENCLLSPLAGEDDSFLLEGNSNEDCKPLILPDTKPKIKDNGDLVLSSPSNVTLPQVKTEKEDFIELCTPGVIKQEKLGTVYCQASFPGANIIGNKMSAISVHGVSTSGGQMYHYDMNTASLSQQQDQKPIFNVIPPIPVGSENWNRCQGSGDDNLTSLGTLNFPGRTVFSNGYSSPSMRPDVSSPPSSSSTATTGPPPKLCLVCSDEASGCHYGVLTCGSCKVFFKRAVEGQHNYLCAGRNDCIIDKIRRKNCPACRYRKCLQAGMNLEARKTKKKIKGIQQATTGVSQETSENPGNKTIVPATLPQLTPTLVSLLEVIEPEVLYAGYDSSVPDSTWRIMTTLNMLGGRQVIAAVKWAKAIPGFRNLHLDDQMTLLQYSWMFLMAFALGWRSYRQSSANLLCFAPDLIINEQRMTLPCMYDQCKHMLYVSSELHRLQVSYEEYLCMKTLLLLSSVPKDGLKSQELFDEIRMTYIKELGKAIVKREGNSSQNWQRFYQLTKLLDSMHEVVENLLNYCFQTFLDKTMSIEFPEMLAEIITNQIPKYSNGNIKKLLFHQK
Chain of GR and PU.1 (P04150 whole entry): as above
Chain of GR and FLI1 (P04150 whole entry, the tested form may be a part): as the sequence (P04150 whole entry) above

## CC#C[C@]1(O)CC[C@H]2[C@@H]3CCC4=CC(=O)CCC4=C3[C@@H](c3ccc(N(C)C)cc3)C[C@@]21C [RU486, Mifepristone]
GR and FLI1
  effect on DEX-induced physical interaction between GR and FLI1 (PCA): significantly inhibited
GR and ETV4
  effect on DEX-induced physical interaction between GR and ETV4 (PCA): only a trend was noted
GR and PU.1
  effect on DEX-induced physical interaction between GR and PU.1 (PCA): significantly inhibited
CHLA9 and RD-ES cells
  matrix invasion: inhibited
A673 cells
  fraction of metabolically active cells (MTT) after EWS-FLI1 knockdown: further reduced
RD-ES tumors
  AKT survival pathway in tumors: inhibited
  LC3B-I abundance in tumors: increased abundance
  activation of caspase 3 in tumors: no clear activation
  larger isoform of BIM in tumors: up-regulation
RD-ES tumors; three mice per group
  p21 abundance in tumors: increased abundance
  p27 abundance in tumors: increased abundance
TC-71 cells
  bone-to-lung metastasis (lung luminescence): lessened lung nodules
